Consider 3 compounds from patent publication US10695427B2, “Shape memory particles for biomedical uses” (The Johns Hopkins University, priority 2015, dated 2020).

Assay [1] relates to MDA-MB-231 cells. Description: Paclitaxel/digoxin treatment of TNBC orthografts (tumor volume, Aldefluor assay, RT-qPCR). Particulars: tumors harvested on day 12; for percentage of ALDH+ cells (Aldefluor assay): compared with saline treatment. Type of assay: in vivo, mice. As for the experimental part:
MDA-MB-231 cells were implanted into the mammary fat pad of female severe combined immunodeficiency (Scid) mice. Mice were randomized to four groups, which were treated with: saline (control, C); digoxin (D); paclitaxel (P); or paclitaxel and digoxin (P/D). […] Tumors were harvested on day 12 for Aldefluor assay to determine the percentage of aldehyde dehydrogenase-expressing (ALDH^+) BCSCs (FIG. 17B) and RT-qPCR assays to quantify the expression of mRNAs encoding interleukin (IL) 8, IL-6, and the multidrug drug resistance protein MDR1 (FIG. 17C).
In general terms: In qPCR the cycle at which signal appears reflects the starting amount.

Assay [2] has as its system MDA-MB-231 cells. Briefly: Gemcitabine/digoxin combination therapy, tumor relapse. Type of assay: in vivo, mice. As for the experimental part:
MDA-MB-231 cells were implanted into the mammary fat pad of female Scid mice. When a tumor was palpable (day 1), the mice were randomized to three groups, which were treated with intraperitoneal injections of: saline, gemcitabine [20 mg/kg on days 5, 10, 15, 20, and 25 (arrows)], or gemcitabine and digoxin (2 mg/kg on days 1-25). Tumor volumes were determined every 2-3 d and mean±SEM (n=3) are shown.
To examine the effect of HIF inhibition on tumor relapse, MDA-MB-231 cells were implanted into the mammary fat pad of Scid mice. When the tumor became palpable, the mice were randomized to receive intraperitoneal injections of saline, gemcitabine (20 mg/kg on days 5, 10, 15, 20, and 25), or the combination of digoxin (2 mg/kg on days 1-25) and gemcitabine.

Each structure is given as a SMILES string.

With `CC(=O)O[C@H]1C(=O)[C@@]2(C)[C@H]([C@H](OC(=O)c3ccccc3)[C@]3(O)C[C@H](OC(=O)[C@H](O)[C@@H](NC(=O)c4ccccc4)c4ccccc4)C(C)=C1C3(C)C)[C@]1(OC(C)=O)CO[C@@H]1C[C@@H]2O` [paclitaxel], the “expression of IL-6, IL-8, and MDR1 mRNA” value in the assay with MDA-MB-231 cells [1] (RT-qPCR) is recorded as “increased”. In the assay on MDA-MB-231 cells [1], the “percentage of ALDH+ cells (Aldefluor assay)” value is on record as “significantly increased”.
Consider `Nc1ccn([C@@H]2O[C@H](CO)[C@@H](O)C2(F)F)c(=O)n1` [gemcitabine], for which the “tumor growth during treatment” value in the assay with MDA-MB-231 cells [2] (intraperitoneal, gemcitabine 20 mg/kg days 5, 10, 15, 20, 25, digoxin 2 mg/kg days 1-25, Scid mice) was “markedly reduced tumor growth”. For the same compound, the “tumor growth after treatment was discontinued (relapse)” value in the assay with MDA-MB-231 cells [2] (up to day 32, 7 days after treatment was discontinued) is listed as “rapid tumor growth resumed”.
As to `C[C@H]1O[C@@H](O[C@H]2[C@@H](O)C[C@H](O[C@H]3[C@@H](O)C[C@H](O[C@H]4CC[C@@]5(C)[C@H](CC[C@@H]6[C@@H]5C[C@@H](O)[C@]5(C)[C@@H](C7=CC(=O)OC7)CC[C@]65O)C4)O[C@@H]3C)O[C@@H]2C)C[C@H](O)[C@@H]1O` [digoxin], the “percentage of ALDH+ cells (Aldefluor assay)” value in the assay with MDA-MB-231 cells [1] is “significantly decreased”.
